Measurements reported in patent publication US12558331B2, “Pregabalin formulations and use thereof” (priority 2019, dated 2026).

Experiments:
cats = test: Randomized, double-blind, placebo-controlled clinical study: transportation and veterinary visit anxiety and fear in cats; assay type: in vivo, cat; conditions: 5 mg/kg orally
Protocol: A randomized, double-blind, placebo-controlled parallel-group, multicenter clinical study was conducted for evaluating the efficacy and safety of pregabalin for the treatment or prevention of transportation and veterinary visit anxiety and fear in cats. Cats were randomised to receive either 5 mg/kg (n=108) of pregabalin or placebo (n=101) orally as a single dose approximately 90 minutes before transportation to the veterinary clinic.
The study had two primary efficacy variables. The first primary variable was the owner's assessment of the treatment effect based on the cat's stress, anxiety and/or fear during transportation in a car. The second primary variable was the investigator's assessment of the treatment effect based on the cat's stress, anxiety and/or fear during clinical examination at the veterinary clinic. Both were assessed using a numerical rating scale with the scores 1-5.

[1] = Water solubility of pregabalin as the function of pH at 5° C.; assay type: physicochemical
Protocol: Water solubility at 5° C. of pregabalin as such and with the addition of 2.0 mg/ml sodium benzoate was measured as the function of pH.

[2] = single dose approximately 90 minutes before transportation

**Q.** For `CC(C)C[C@H](CN)CC(=O)O` [pregabalin], which Ataxia and sedation (cats; single dose) is on record?
**A.** did not produce marked ataxia or excessive sedation

**Q.** And the “Investigator's assessment of treatment effect during clinical examination, % of cats, Score 1 Excellent” value (cats; [2])?
**A.** 14.3%

**Q.** What about the “Investigator's assessment of treatment effect during clinical examination, % of cats, Score 2 Good” value (cats; [2]) of the same compound?
**A.** 41.0%

**Q.** What about the “Investigator's assessment of treatment effect during clinical examination, % of cats, Score 3 Fair” value (cats; [2]) of the same compound?
**A.** 27.6%

**Q.** And the “Investigator's assessment of treatment effect during clinical examination, % of cats, Score 4 Poor” value (cats; [2])?
**A.** 10.5%

**Q.** What about the “Investigator's assessment of treatment effect during clinical examination, % of cats, Score 5 Very poor” value (cats; [2]) of the same compound?
**A.** 6.7%

**Q.** And the “Owner's assessment of treatment effect during transportation, % of cats, Score 1 Excellent” value (cats; [2])?
**A.** 17.1%

**Q.** And the “Owner's assessment of treatment effect during transportation, % of cats, Score 2 Good” value (cats; [2])?
**A.** 34.3%

**Q.** And the “Owner's assessment of treatment effect during transportation, % of cats, Score 3 Fair” value (cats; [2])?
**A.** 23.8%

**Q.** And the “Owner's assessment of treatment effect during transportation, % of cats, Score 4 Poor” value (cats; [2])?
**A.** 14.3%

**Q.** What about the “Owner's assessment of treatment effect during transportation, % of cats, Score 5 Very poor” value (cats; [2]) of the same compound?
**A.** 10.5%

**Q.** And the “Water solubility as the function of pH” value ([1]; pregabalin as such, when pH is lower than about 4.4, FIG. 1)?
**A.** increased significantly

**Q.** What about the “Physical stability (precipitation of pregabalin)” value ([1]; with addition of 2.0 mg/ml sodium benzoate, FIG. 1) of the same compound?
**A.** further improved the physical stability
